“Also recorded” adds a separate entry of the source. Where no end group is shown, it is not given here. [ ]: non-standard residue; d: D form. Nle = CCCC[C@H](N)C(=O)O
What was measured:
[1] = system: C57BL/Ksj-db/db diabetic mice; assay: Full-thickness excision model, mouse: hair follicle regeneration; format: in vivo; settings: day 26, topical in 10% CMC or subcutaneous, not observed in placebo
Experimental: (§1) Materials: The viscous vehicle was prepared from carboxymethylcellulose (CMC sodium salt, low viscosity, Sigma, St. Louis, Mo., Lot Number 34H0310) consisting of 10% low viscosity CMC in 0.05 M phosphate buffer, pH. 7.2, and sterilized by autoclaving followed by mixing with sterile peptide solutions. For subcutaneous administration, the peptides were dissolved in Lactated Ringers' Solution. […] 9GD (SEQ ID NO:41) was prepared by the Microchemical Core Laboratory at USC.
(§2) Surgical model: During the experimental period, C57BL/Ksj-db/db diabetic mice (Jackson Laboratories, Cold Spring Harbor, Me.) or Sprague Dawley rats were housed one per cage and maintained in a central animal care facility with a 12-hour light/dark cycle. Water and standard rodent laboratory chow were supplied ad libitum. All animals used for this study received humane care as defined by the National Research Council's criteria for humane care. The study protocols were approved by the University of Southern California's Institutional Animal Care and Use Committee before initiation of the studies.
Mouse Model: On day 0, C57BL/Ksj-db/db diabetic mice were anesthetized with intramuscular ketamine/xylazine and backs were swabbed with 70% isopropyl alcohol followed by betadine. Afterwards, a 1.3 cm diameter full thickness skin area was excised on the back of each mouse. […]

C57BL/6 mice = assay: Hair cycle synchronized animal model, cyclophosphamide induced alopecia; format: in vivo, mouse; settings: for mice with observable hair regrowth: day 13, 30 μg/kg/day, control 1 of 5; for percentage of the area with hair regrowth: day 13, FIG. 1; for number of mature hair follicles present: day 19, histology, FIG. 2
Text: Adolescent, 6- to 8-week-old female, C57BL/6 mice (Simonson, Gilroy, Calif.) with normal, black fur were purchased and housed in community cages with 12-hour light cycles with mouse chow and water ad libitum. In contrast to the mosaic cycling of human hair follicles, these mice display a unique hair cycle synchronization, which makes them a most productive model for hair research. Only mice in the resting stage of the hair cycle (telogen) are used for these studies. In the truncal skin of mice all melanocytes reside in hair follicles, and pigment production (melanogenesis) occurs exclusively in anagen follicles. Thus, telogen C57BL/6 mice can be recognized reliably by the homogeneously pink color of their back skin.
Predictable and highly synchronized anagen development can only be achieved with anagen induction by depilation, as opposed to spontaneous anagen development. Thus, anagen was induced in the back skin of telogen mice by depilation so that, at the start of pharmacological manipulation, all hair follicles in the depilated back skin area of all mice are in exactly the same stage of anagen development. As soon as anagen VI had been reached, all mice were injected once with a high dose of cyclophosphamide. In all experiments, control and test mice were then compared for signs of hair loss, for skin color changes indicating the effect of test drugs on hair cycling and follicle melanogenesis, and for hair regrowth.
Under ketamine hydrochloride-induced general anesthesia, telogen mice that had gone through several postnatal hair cycles were induced to enter anagen by depilation of all telogen hair shafts. This was done by applying a melted wax/rosin mixture to the back skin and by peeling off this mixture after hardening. By this technique, all depilated telogen hair follicles immediately begin to transform into anagen follicles with their associated melanogenesis.
As soon as early anagen VI had been reached by these induced anagen follicles, ie, on day 9 postdepilation (p.d.), a single intraperitoneal injection of cyclophosphamide was given (150 mg/kg).
Chemotherapy induced alopecia was manipulated pharmacologically by administration of the active agents of the present invention, topically or by subcutaneous injection once daily until necropsy. Pigmentation, hair regrowth, and follicle histology are analyzed as indicated. Particular attention is paid to any retarding or enhancing effects on the degree of alopecia, to the hair regrowth pattern, and to the pigmentation of regrowing hair shafts.
After the cyclophosphamide injection on day 9 p.d, the back skin of test and control mice were examined daily for a period of up to 32 days for signs of alopecia and color conversion from black to pink, indicating the progression of anagen follicles in the hair cycle via catagen to telogen. This color change results from the abrupt termination of melanogenesis in follicular melanocytes very early during catagen development. Visible changes were recorded and photodocumented. Starting 1 week after CYP injection, the skin was examined daily for signs of hair regrowth, skin repigmentation, and the quality of hair shaft pigmentation.
In C57BL/6 mice of this age group, depilation induced anagen follicles spontaneously enter catagen between days 17 and 20 p.d., mostly around day 18. The development of catagen follicles was indicated macroscopically by a change in skin color from black to light gray and occurs in large waves, appearing first in the neck region. then on the flanks, until finally the tail region enters catagen. Within 1 to 2 days after catagen induction, the follicle enters telogen, as indicated by a skin color change from gray to pink. […]

[2] = system: patients with newly diagnosed breast cancer receiving doxorubicin and cyclophosphamide; assay: Phase I/II dose escalation study of AII(1-7) before and after chemotherapy; adverse event alopecia; format: in vivo, human; settings: for incidents of alopecia associated with chemotherapy: breast cancer patients, doxorubicin 60 mg/m2 and cyclophosphamide 600 mg/m2, subcutaneous once daily
Experimental: Dose escalation within an individual patient was not permitted.
Following the rest period, a chemotherapy regimen containing doxorubicin 60 mg/m^2 and cyclophosphamide 600 mg/m^2 was initiated.
An adverse event (AE) was considered any unfavorable or unintended change in structure, function, signs, or symptoms temporally associated with the use of a medicinal product experienced by a person administered a pharmaceutical product, whether or not a causal relationship with the product has been established. During the conduct of this clinical trial, study personnel asked open-ended questions to obtain information about AEs at every visit. Signs and symptoms were graded by the Investigator using the WHO toxicity criteria. For alopecia, no notation was made if there was no hair loss. If there was hair loss, it was graded as mild (1) or pronounced (2). In this trial, the incidents of alopecia associated with chemotherapy were as follows: […]

Sprague Dawley rats = assay: Full-thickness excision model, rat: hair follicle regeneration; format: in vivo; settings: day 21, topical in 10% CMC or subcutaneous, not observed in placebo
Experimental: as §1, §2
Rat Model: Female Sprague-Dawley rats, 175 to 200 grams, were anesthetized with intramuscular ketamine/rompun. The backs of the rats were shaved with animal clippers, scrubbed with betadine, and washed with 70% alcohol before surgery. […]

[3] = Fragments tested for effectiveness (test not specified)

Molecule	microscopic examination of wound site: new adnexal structures (new hair follicles) [1]	mice with observable hair regrowth (C57BL/6 mice)	percentage of the area with hair regrowth (C57BL/6 mice)	number of mature hair follicles present (C57BL/6 mice)	incidents of alopecia associated with chemotherapy [2]	effect on alopecia in chemotherapy patients relative to control ([2]; chemotherapy patients)	microscopic examination of wound site: new adnexal structures (new hair follicles) (Sprague Dawley rats)	effectiveness [3]
Asp-Arg-Val-Tyr-Ile-His-Pro [AII(1-7)]	formation of new adnexal structures	4 of 5	significantly increased	increased	46%	significantly decreased alopecia	formation of new adnexal structures	–
DR(nor)YIHP (DR[Nle]YIHP) [Analogue 9GD]	formation of new adnexal structures	5 of 5	significantly increased	increased	–	–	formation of new adnexal structures	–
His-Pro-Phe (HPF) [AII(6-8)]	–	–	–	–	–	–	–	not to be effective
Tyr-Ile-His-Pro-Phe (YIHPF) [AII(4-8)]	–	–	–	–	–	–	–	not to be effective; also recorded: ineffective
Filgratim: filgrastim (NEUPOGEN, Amgen, Inc.), comparator arm (protein, chains of the INN, looked up) MTPLGPASSLPQSFLLKCLEQVRKIQGDGAALQEKLCATYKLCHPEELVLLGHSLGIPWAPLSSCPSQALQLAGCLSQLHSGLFLYQGLLQALEGISPELGPTLDTLQLDVADFATTIWQQMEELGMAPALQPTQGAMPAFASAFQRRAGGVLVASHLQSFLEVSYRVLRHLAQP	–	–	–	–	40%	–	–	–

Source: patent publication US6747008B1, “Methods for treating and preventing alopecia” (University of Southern California, priority 2000, dated 2004)
